Experimental data published in the NIST ThermoML archive (doi:10.1016/j.jct.2008.09.016).

Experiment: mn = molality of the nth substance listed, in mol/kg
Conditions: 101 kPa, Liquid, Vibrating tube method

O=C([O-])Cc1ccccc1Nc1c(Cl)cccc1Cl.[Na+] [sodium diclofenac] + O
mass density [kg/m3]
Conditions | m1 = 0.0075 | m1 = 0.0076 | m1 = 0.01 | m1 = 0.0125 | m1 = 0.0152 | m1 = 0.0175 | m1 = 0.02 | m1 = 0.025
293.15 K | – | 998.331 | 998.385 | 998.445 | 998.525 | 998.605 | 998.695 | 998.911
298.15 K | – | 997.159 | 997.215 | 997.261 | 997.325 | 997.405 | 997.505 | 997.691
303.15 K | – | 995.745 | 995.795 | 995.851 | 995.905 | 995.973 | 996.075 | 996.239
308.15 K | – | 994.125 | 994.175 | 994.221 | 994.294 | 994.351 | 994.436 | 994.595
310.15 K | – | 993.388 | 993.424 | 993.475 | 993.541 | 993.591 | 993.661 | 993.851
313.15 K | 992.285 | – | 992.325 | 992.375 | 992.428 | 992.481 | 992.545 | 992.725
